# Patent US20200261421A1, “HETEROCYCLIC COMPOUNDS AS HIV PROTEASE INHIBITORS” (Merck Sharp & Dohme Corp., priority 2016, published 2020)
# Biological target: T1, wild-type HIV-1 protease (Human immunodeficiency virus type 1 group M subtype B, UniProt P04585)
# T1 construct: Escherichia coli expressed wild-type HIV-1 protease protein; made in house; host or cells: Escherichia coli
# Test: Assay for Inhibition of Microbial Expressed HIV Protease
# Assay type: biochemical
# Conditions: Escherichia coli expressed wild-type HIV-1 protease, peptide substrate cleavage; mean of at least two independent experiments
# Procedure, shortened: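 E. coli-expressed wild-type HIV-1 protease (20 pM) was preincubated with inhibitor for 30 min at room temperature in 50 mM sodium acetate pH 5.5, 100 mM NaCl, 0.1% BSA. It was then reacted with 400 μM peptide substrate for 1 h at 30 °C. Cleavage product was quantified by LC-MS/MS, and IC50 is the mean of at least two experiments.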
row,Compound,IC50 [nM]
1,"CN(Cc1ccc(C#N)cc1)C(=O)c1cc(CN2C(=N)NC(c3ccccc3)(c3ccccc3)C2=O)ccc1C(F)(F)F [Example 2, N-(4-cyanobenzyl)-5-[(2-imino-5-oxo-4,4-diphenylimidazolidin-1-yl)methyl]-N-methyl-2-(trifluoromethyl)benzamide]",18.2
2,"CC(C)CCC1(c2ccccc2)NC(=N)N(Cc2ccc(C(F)(F)F)c(C(=O)NCC(F)F)c2)C1=O (stereo not drawn) [Example 10, N-(2,2-difluoroethyl)-5-{[2-imino-4-(3-methylbutyl)-5-oxo-4-phenylimidazolidin-1-yl]methyl}-2-(trifluoromethyl)benzamide]",91.2
3,"CN(Cc1ccc(F)cc1)C(=O)c1ccnc(CN2C(=N)NC(c3ccccc3)(c3ccccc3)C2=O)c1 [Example 90, N-(4-fluorobenzyl)-2-[(2-imino-5-oxo-4,4-diphenylimidazolidin-1-yl)methyl]-N-methylpyridine-4-carboxamide]",24.6
4,"CN(Cc1ccc(Cl)cc1)C(=O)c1ccnc(CN2C(=N)NC(c3ccccc3)(c3ccccc3)C2=O)c1 [Example 86, N-(4-chlorobenzyl)-2-[(2-imino-5-oxo-4,4-diphenylimidazolidin-1-yl)methyl]-N-methylpyridine-4-carboxamide]",7.72
5,"CC(C)C[C@@]1(c2ccccc2)NC(=N)N([C@H](C)c2cccc(C(=O)N(C)Cc3ccc(F)cc3)c2)C1=O [Example 55, N-(4-fluorobenzyl)-3-((R)-1-((S)-2-imino-4-isobutyl-5-oxo-4-phenylimidazolidin-1-yl)ethyl)-N-methylbenzamide]",52.9
6,"CC(C)CCC1(c2ccc(F)cc2)NC(=N)N(Cc2cccc(C(=O)N(C)Cc3ccc(C#N)cc3)c2)C1=O (stereo not drawn) [Example 35, N-(4-cyanobenzyl)-3-{[4-(4-fluorophenyl)-2-imino-4-(3-methylbutyl)-5-oxoimidazolidin-1-yl]methyl}-N-methylbenzamide]",20.5
7,"CC(C)CC1(c2ccccc2)NC(=N)N(Cc2ccc(C(F)(F)F)c(C(=O)NCc3cnccn3)c2)C1=O (stereo not drawn) [Example 6, 5-{[2-imino-4-(2-methylpropyl)-5-oxo-4-phenylimidazolidin-1-yl]methyl}-N-(pyrazin-2-ylmethyl)-2-(trifluoromethyl)benzamide]",46.4
8,"CN(Cc1cccc(S(C)(=O)=O)c1)C(=O)c1cccc(CN2C(=N)NC(c3ccc(F)cc3)(c3ccc(F)cc3)C2=O)c1 [Example 60, 3-{[4,4-bis(4-fluorophenyl)-2-imino-5-oxoimidazolidin-1-yl]methyl}-N-methyl-N-[3-(methylsulfonyl)benzyl]benzamide]",69.2
9,"C[C@H](c1ccc(F)cc1)N(C)C(=O)c1cccc(CN2C(=N)NC(c3ccccc3)(c3ccccc3)C2=O)c1 [Example 20, N-[(1R)-1-(4-fluorophenyl)ethyl]-3-[(2-imino-5-oxo-4,4-diphenylimidazolidin-1-yl)methyl]-N-methylbenzamide]",11.7
10,"CC(C)CCC1(c2ccc(F)cc2)NC(=N)N(Cc2cccc(C(=O)N(C)Cc3ccc(Cl)cc3)c2)C1=O (stereo not drawn) [Example 22, N-(4-chlorobenzyl)-3-{[4-(4-fluorophenyl)-2-imino-4-(3-methylbutyl)-5-oxoimidazolidin-1-yl]methyl}-N-methylbenzamide]",12.9
11,"CC(C)CC1(c2ccccc2)NC(=N)N(Cc2ccc(Cl)c(C(=O)NCc3ccc(F)cc3)c2)C1=O (stereo not drawn) [Example 72, 2-chloro-N-(4-fluorobenzyl)-5-{[2-imino-4-(2-methylpropyl)-5-oxo-4-phenylimidazolidin-1-yl]methyl}benzamide]",9.5
12,"CC(C)CC1(c2ccccc2)NC(=N)N(Cc2cccc(C(=O)N(C)Cc3ccc(Cl)cc3)c2)C1=O (stereo not drawn) [Example 25, N-(4-chlorobenzyl)-3-{[2-imino-4-(2-methylpropyl)-5-oxo-4-phenylimidazolidin-1-yl]methyl}-N-methylbenzamide]",13.8
13,"CC(C)CC1(c2ccccc2)NC(=N)N(Cc2cc(C(=O)N(C)Cc3ccc(C#N)cc3)ccn2)C1=O (stereo not drawn) [Example 87, N-(4-cyanobenzyl)-2-{[2-imino-4-(2-methylpropyl)-5-oxo-4-phenylimidazolidin-1-yl]methyl}-N-methylpyridine-4-carboxamide]",15.5
14,"CCCC1(c2ccccc2)NC(=N)N(Cc2cccc(C(=O)N(C)Cc3ccc(Cl)cn3)c2)C1=O (stereo not drawn) [Example 47, N-[(5-chloropyridin-2-yl)methyl]-3-[(2-imino-5-oxo-4-phenyl-4-propylimidazolidin-1-yl)methyl]-N-methylbenzamide]",33.3
15,"CN(Cc1ccc(Cl)cc1)C(=O)c1cccc(CN2C(=N)NC(c3ccc(F)cc3)(c3ccccn3)C2=O)c1 (stereo not drawn) [Example 39, N-(4-chlorobenzyl)-3-{[4-(4-fluorophenyl)-2-imino-5-oxo-4-pyridin-2-ylimidazolidin-1-yl]methyl}-N-methylbenzamide]",24.8
